In patent US10988523B2, “Modified lipidated Relaxin B chain peptides and their therapeutic use” (Sanofi, priority 2018, dated 2021):
*1 amine or outer side, *2 acyl side, *3 side chain or, on linkers, in order; H or OH if unused. Where a SMILES comes first, the peptide text is derived from it. Side-chain parts run from the residue outwards. [ ]: non-standard residue; d: D form. The star is where a group is joined. PEG12 = NCCOCCOCCOCCOCCOCCOCCOCCOCCOCCOCCOCCOCCC(=O)O; γGlu = O=C(O)[C@H](CCC(=O)[*:2])N[*:1]; Stearoyl = CCCCCCCCCCCCCCCCCC(=O)*; Palmitoyl = CCCCCCCCCCCCCCCC(=O)*; αMeK = C[C@](N)(CCCCN)C(=O)O; Nle = CCCC[C@H](N)C(=O)O; AEEA = NCCOCCOCC(=O)O; Aib = CC(C)(N)C(=O)O

Key:
[1] = molecular target: T1, RXFP1 (Homo sapiens, UniProt Q9HBX9); assay: OVCAR5 cAMP assay (HTRF), RXFP1 agonist activity; assay type: cell-based; settings: for EC50: OVCAR5 cells, cAMP HTRF, read-out: EC50 (nM), OVCAR 5 cells (cAMP); for Emax: OVCAR-5, maximal cAMP relative to H2-relaxin maximum (100%), read-out: EMax, OVCAR 5 cells (cAMP)
T1 construct: OVCAR5 cells expressing endogenous RXFP1; endogenous in cells; host or cells: OVCAR5 cells
T1 sequence (Q9HBX9 1-757): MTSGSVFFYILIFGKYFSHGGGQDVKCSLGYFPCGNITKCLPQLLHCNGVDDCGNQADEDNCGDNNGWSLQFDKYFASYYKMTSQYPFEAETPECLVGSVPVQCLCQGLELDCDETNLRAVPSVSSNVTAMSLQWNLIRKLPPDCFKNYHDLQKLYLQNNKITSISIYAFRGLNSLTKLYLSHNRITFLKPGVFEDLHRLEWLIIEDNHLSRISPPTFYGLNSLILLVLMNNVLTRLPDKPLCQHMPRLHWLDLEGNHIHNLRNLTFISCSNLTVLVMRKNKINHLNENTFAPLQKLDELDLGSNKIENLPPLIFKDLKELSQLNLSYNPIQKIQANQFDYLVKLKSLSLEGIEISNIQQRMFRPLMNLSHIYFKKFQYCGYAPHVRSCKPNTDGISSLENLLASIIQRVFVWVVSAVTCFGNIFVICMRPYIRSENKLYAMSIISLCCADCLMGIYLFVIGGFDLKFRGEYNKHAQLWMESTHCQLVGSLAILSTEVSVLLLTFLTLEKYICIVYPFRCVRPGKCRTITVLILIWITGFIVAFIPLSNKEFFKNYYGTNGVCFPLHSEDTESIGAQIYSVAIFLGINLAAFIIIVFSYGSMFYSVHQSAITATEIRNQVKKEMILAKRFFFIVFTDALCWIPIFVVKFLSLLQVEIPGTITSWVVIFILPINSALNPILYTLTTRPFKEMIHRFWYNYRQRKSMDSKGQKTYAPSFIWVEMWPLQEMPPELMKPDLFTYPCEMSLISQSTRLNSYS
Procedure, shortened: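 OVCAR5 cells (endogenous RXFP1) pretreated 40 min at 37° C with 1 mM IBMX, then exposed to peptides in serum-free medium for 30 min at 37° C. Lysate cAMP read by HTRF; EC50 from variable-slope sigmoidal fit; Emax as % of H2-relaxin maximal cAMP in same run.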

[2] = Pharmacokinetic (PK) determination after i.v. or s.c. administration to rats; assay type: in vivo, Sprague Dawley rats; settings: Sprague Dawley, Rat PK; for C0 / half-life: iv, 1 mg/kg i.v.; for C0: extrapolated plasma concentration at t=0, read-out: C0; for half-life / Cmax / Tmax / bioavailability: plasma; for half-life: read-out: T½ (converted); for Cmax / Tmax: sc, 3 mg/kg s.c.; for bioavailability: subcutaneous, 3 mg/kg s.c. vs 1 mg/kg i.v., dose-corrected AUC ratio
Procedure, shortened: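 Sprague Dawley rats received peptide in PBS at 1 mg/kg i.v. or 3 mg/kg s.c., dose corrected for salts, solvent and purity. Plasma analysed by LC/MS after protein precipitation; non-compartmental PK, BLQ values set to zero, F% as dose-corrected s.c./i.v. AUC ratio.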

| EC50 [1] [nM] | Emax [1] [%] | C0 [2] [nM] | half-life [2] [h] | Cmax [2] [nM] | Tmax [2] [h] | bioavailability [2] [%] | SMILES |
| --- | --- | --- | --- | --- | --- | --- | --- |
| 0.57 | 85 | 2330 | 5.8 | 770 | 8 | 72 | CCCCCCCCCCCCCCCC(=O)N[C@@H](CCC(=O)N[C@@H](CCC(=O)N[C@@H](CCC(=O)NCCCC[C@H](NC(=O)CCOCCOCCOCCOCCOCCOCCOCCOCCOCCOCCOCCOCCNC(=O)[C@H](CCCCNC(C)=O)NC(=O)[C@H](CCCCN)NC(=O)[C@H](CCCNC(=N)N)NC(=O)C(C)(C)NC(=O)[C@H](CO)NC(=O)[C@H](Cc1c[nH]c2ccccc12)NC(=O)[C@@H](NC(=O)[C@H](CO)NC(=O)[C@H](CCCC)NC(=O)CNC(=O)[C@H](CCC(=O)O)NC(=O)C(C)(C)NC(=O)C(C)(C)NC(=O)[C@@H](NC(=O)[C@H](CCCCNC(C)=O)NC(=O)[C@H](C)NC(=O)[C@H](CCCNC(=N)N)NC(=O)[C@@H](NC(=O)[C@H](CCCCN)NC(=O)[C@H](CCC(=O)O)NC(=O)[C@H](CCCNC(=N)N)NC(=O)CNC(=O)[C@H](CCC(=O)O)NC(=O)[C@H](CC(C)C)NC(C)=O)C(C)C)[C@@H](C)CC)[C@@H](C)O)C(N)=O)C(=O)O)C(=O)O)C(=O)O [compound 26] (Ac-LEGREKVRAK(Ac)I[Aib][Aib]EG[Nle]STWS[Aib]RKK(Ac)[PEG12]K([γGlu-γGlu-γGlu-Palmitoyl])-NH2) |
| 0.02 | 87 | 2650 | 3.38 | 1880 | 8 | 53 | CCCCCCCCCCCCCCCCCC(=O)N[C@@H](CCC(=O)N[C@@H](CCC(=O)N[C@@H](CCC(=O)N[C@@H](CCC(=O)NCCCC[C@H](NC(=O)COCCOCCNC(=O)COCCOCCNC(=O)COCCOCCNC(=O)[C@H](CCCCNC(C)=O)NC(=O)[C@H](CCCCN)NC(=O)[C@H](CCCNC(=N)N)NC(=O)[C@](C)(CCCCN)NC(=O)[C@H](CO)NC(=O)[C@H](Cc1c[nH]c2ccccc12)NC(=O)[C@@H](NC(=O)[C@H](CO)NC(=O)[C@H](CCCC)NC(=O)CNC(=O)[C@H](CCC(=O)O)NC(=O)C(C)(C)NC(=O)C(C)(C)NC(=O)[C@@H](NC(=O)[C@H](CCCCNC(C)=O)NC(=O)[C@H](C)NC(=O)[C@H](CCCNC(=N)N)NC(=O)[C@@H](NC(=O)[C@H](CCCCN)NC(=O)[C@H](CCC(=O)O)NC(=O)[C@H](CCCNC(=N)N)NC(=O)CNC(=O)[C@H](CCC(=O)O)NC(=O)[C@H](CC(C)C)NC(C)=O)C(C)C)[C@@H](C)CC)[C@@H](C)O)C(N)=O)C(=O)O)C(=O)O)C(=O)O)C(=O)O [compound 16] (Ac-LEGREKVRAK(Ac)I[Aib][Aib]EG[Nle]STWS[αMeK]RKK(Ac)[AEEA][AEEA][AEEA]K([γGlu-γGlu-γGlu-γGlu-Stearoyl])-NH2) |
| 0.01 | 91 | 3000 | 3.7 | 2000 | 5 | 65 | CCCCCCCCCCCCCCCCCC(=O)N[C@@H](CCC(=O)N[C@@H](CCC(=O)N[C@@H](CCC(=O)N[C@@H](CCC(=O)NCCCC[C@H](NC(=O)CCOCCOCCOCCOCCOCCOCCOCCOCCOCCOCCOCCOCCNC(=O)[C@H](CCCCNC(C)=O)NC(=O)[C@H](CCCCN)NC(=O)[C@H](CCCNC(=N)N)NC(=O)[C@](C)(CCCCN)NC(=O)[C@H](CO)NC(=O)[C@H](Cc1c[nH]c2ccccc12)NC(=O)[C@@H](NC(=O)[C@H](CO)NC(=O)[C@H](CCCC)NC(=O)CNC(=O)[C@H](CCC(=O)O)NC(=O)C(C)(C)NC(=O)C(C)(C)NC(=O)[C@@H](NC(=O)[C@H](CCCCNC(C)=O)NC(=O)[C@H](C)NC(=O)[C@H](CCCNC(=N)N)NC(=O)[C@@H](NC(=O)[C@H](CCCCN)NC(=O)[C@H](CCC(=O)O)NC(=O)[C@H](CCCNC(=N)N)NC(=O)CNC(=O)[C@H](CCC(=O)O)NC(=O)[C@H](CC(C)C)NC(C)=O)C(C)C)[C@@H](C)CC)[C@@H](C)O)C(N)=O)C(=O)O)C(=O)O)C(=O)O)C(=O)O [compound 42] (Ac-LEGREKVRAK(Ac)I[Aib][Aib]EG[Nle]STWS[αMeK]RKK(Ac)[PEG12]K([γGlu-γGlu-γGlu-γGlu-Stearoyl])-NH2) |
